Entries after “also recorded” stand apart in the source; their conditions may differ.
Legend:
[1] = tested on: murine fibroblast (NIH-3T3) cells; test: MTT cytotoxicity assay in murine fibroblasts; assay type: cell-based; settings: for effect on NIH-3T3 cell viability (in words): MTT, 24 h exposure, 25 to 800 µg/mL; for Emax at 800 µg/mL: Mus musculus, NIH3T3, 24 h, decrease in cell viability at the maximum concentration tested (800 μg/mL), NIH-3T3, 24 h
Method in brief: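 NIH-3T3 cells exposed 24 h to samples at 25–800 µg/mL in 3% DMSO, with 3% DMSO as control. MTT (5 mg/mL stock) added for 2 h, formazan dissolved in DMSO, absorbance read at 595 nm.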

J774A.1 cells = test: Cell death mechanism, annexin-V FITC / propidium iodide staining by flow cytometry; assay type: cell-based, mouse; settings: J774A.1, 24 h; piplartine 25 μg/mL, 14B 400 μg/mL
Description: Cells were then treated with 2 µL of annexin-V FITC (Apoptosis Detection Kit; BD Biosciences, Franklin Lakes, NJ, USA) and 2 µL of propidium iodide (PI, 50 µg/mL) for 15 min in the dark at room temperature. Next, 100 µL binding buffer was added and samples were analysed by flow cytometry (BD LSFortessa^TM, Franklin Lakes, NJ, USA). A total of 20,000 events were collected per sample.

[2] = tested on: 49-day-old S. mansoni adult worms; test: In vitro experiments with adult worms of S. mansoni (mortality, motor activity); assay type: cell-based, Schistosoma mansoni; settings: for Dead Worms (%) F / Motor Activity Reduction (%) Significant F / Motor Activity Reduction (%) Slight F: female worms; for Dead Worms (%) M / Motor Activity Reduction (%) Significant M / Motor Activity Reduction (%) Slight M: male worms; for activity against S. mansoni adult worms (in words): analogues 50, 25, 10 and 5 μM, piplartine 5 and 10 μM, up to 96 h
Method in brief: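 BH-strain worm pairs recovered from hamsters 49 days post-infection, washed in RPMI 1640 with penicillin, streptomycin and amphotericin B, and cultured as mated pairs with or without drug for 96 h. Motor activity changes and death were scored by microscopy.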

[3] = tested on: mouse BALB/cN macrophage (J774A.1) cell line; test: Cell viability by flow cytometry in macrophages; settings: 24 h, 25, 100 and 400 µg/mL, vs DMEM control

O=C(/C=C/c1ccc2c(c1)OCO2)N1CCCC1 [Compound 14B]
effect on NIH-3T3 cell viability (in words) [1]: considerable reduction in cell viability at concentrations of 400 and 800 μg/mL; also recorded: showed toxicity at 200, 400 and 800 μg/mL | Emax at 800 µg/mL [1]: 83.64 ± 0.47% | annexin-V FITC staining (apoptosis marker) vs DMEM negative control (in words) (J774A.1 cells): significant (p < 0.05) increase in annexin-V FITC staining | Dead Worms (%) F ([2]; 5 µM, 24 h): 0% | Motor Activity Reduction (%) Significant F ([2]; 5 µM, 24 h): 0% | Motor Activity Reduction (%) Slight F ([2]; 5 µM, 24 h): 0% | Dead Worms (%) M ([2]; 5 µM, 24 h): 0% | Motor Activity Reduction (%) Significant M ([2]; 5 µM, 24 h): 0% | Motor Activity Reduction (%) Slight M ([2]; 5 µM, 24 h): 0% | Dead Worms (%) F ([2]; 5 µM, 48 h): 0% | Motor Activity Reduction (%) Significant F ([2]; 5 µM, 48 h): 0% | Motor Activity Reduction (%) Slight F ([2]; 5 µM, 48 h): 0% | Dead Worms (%) M ([2]; 5 µM, 48 h): 0% | Motor Activity Reduction (%) Significant M ([2]; 5 µM, 48 h): 0% | Motor Activity Reduction (%) Slight M ([2]; 5 µM, 48 h): 0% | Dead Worms (%) F ([2]; 5 µM, 72 h): 0% | Motor Activity Reduction (%) Significant F ([2]; 5 µM, 72 h): 0% | Motor Activity Reduction (%) Slight F ([2]; 5 µM, 72 h): 0% | Dead Worms (%) M ([2]; 5 µM, 72 h): 0% | Motor Activity Reduction (%) Significant M ([2]; 5 µM, 72 h): 0% | Motor Activity Reduction (%) Slight M ([2]; 5 µM, 72 h): 0% | Dead Worms (%) F ([2]; 5 µM, 96 h): 0% | Motor Activity Reduction (%) Significant F ([2]; 5 µM, 96 h): 0% | Motor Activity Reduction (%) Slight F ([2]; 5 µM, 96 h): 0% | Dead Worms (%) M ([2]; 5 µM, 96 h): 0% | Motor Activity Reduction (%) Significant M ([2]; 5 µM, 96 h): 0% | Motor Activity Reduction (%) Slight M ([2]; 5 µM, 96 h): 0% | Dead Worms (%) F ([2]; 10 µM, 24 h): 0% | Motor Activity Reduction (%) Significant F ([2]; 10 µM, 24 h): 0% | Motor Activity Reduction (%) Slight F ([2]; 10 µM, 24 h): 0% | Dead Worms (%) M ([2]; 10 µM, 24 h): 0% | Motor Activity Reduction (%) Significant M ([2]; 10 µM, 24 h): 0% | Motor Activity Reduction (%) Slight M ([2]; 10 µM, 24 h): 0% | Dead Worms (%) F ([2]; 10 µM, 48 h): 0% | Motor Activity Reduction (%) Significant F ([2]; 10 µM, 48 h): 0% | Motor Activity Reduction (%) Slight F ([2]; 10 µM, 48 h): 0% | Dead Worms (%) M ([2]; 10 µM, 48 h): 0% | Motor Activity Reduction (%) Significant M ([2]; 10 µM, 48 h): 0% | Motor Activity Reduction (%) Slight M ([2]; 10 µM, 48 h): 0% | Dead Worms (%) F ([2]; 10 µM, 72 h): 0% | Motor Activity Reduction (%) Significant F ([2]; 10 µM, 72 h): 0% | Motor Activity Reduction (%) Slight F ([2]; 10 µM, 72 h): 0% | Dead Worms (%) M ([2]; 10 µM, 72 h): 0% | Motor Activity Reduction (%) Significant M ([2]; 10 µM, 72 h): 0% | Motor Activity Reduction (%) Slight M ([2]; 10 µM, 72 h): 0% | Dead Worms (%) F ([2]; 10 µM, 96 h): 0% | Motor Activity Reduction (%) Significant F ([2]; 10 µM, 96 h): 0% | Motor Activity Reduction (%) Slight F ([2]; 10 µM, 96 h): 0% | Dead Worms (%) M ([2]; 10 µM, 96 h): 0% | Motor Activity Reduction (%) Significant M ([2]; 10 µM, 96 h): 0% | Motor Activity Reduction (%) Slight M ([2]; 10 µM, 96 h): 0% | Dead Worms (%) F ([2]; 25 µM, 24 h): 0% | Motor Activity Reduction (%) Significant F ([2]; 25 µM, 24 h): 0% | Motor Activity Reduction (%) Slight F ([2]; 25 µM, 24 h): 0% | Dead Worms (%) M ([2]; 25 µM, 24 h): 0% | Motor Activity Reduction (%) Significant M ([2]; 25 µM, 24 h): 0% | Motor Activity Reduction (%) Slight M ([2]; 25 µM, 24 h): 0% | Dead Worms (%) F ([2]; 25 µM, 48 h): 0% | Motor Activity Reduction (%) Significant F ([2]; 25 µM, 48 h): 0% | Motor Activity Reduction (%) Slight F ([2]; 25 µM, 48 h): 0% | Dead Worms (%) M ([2]; 25 µM, 48 h): 0% | Motor Activity Reduction (%) Significant M ([2]; 25 µM, 48 h): 0% | Motor Activity Reduction (%) Slight M ([2]; 25 µM, 48 h): 0% | Dead Worms (%) F ([2]; 25 µM, 72 h): 0% | Motor Activity Reduction (%) Significant F ([2]; 25 µM, 72 h): 0% | Motor Activity Reduction (%) Slight F ([2]; 25 µM, 72 h): 0% | Dead Worms (%) M ([2]; 25 µM, 72 h): 0% | Motor Activity Reduction (%) Significant M ([2]; 25 µM, 72 h): 0% | Motor Activity Reduction (%) Slight M ([2]; 25 µM, 72 h): 0% | Dead Worms (%) F ([2]; 25 µM, 96 h): 0% | Motor Activity Reduction (%) Significant F ([2]; 25 µM, 96 h): 0% | Motor Activity Reduction (%) Slight F ([2]; 25 µM, 96 h): 0% | Dead Worms (%) M ([2]; 25 µM, 96 h): 0% | Motor Activity Reduction (%) Significant M ([2]; 25 µM, 96 h): 0% | Motor Activity Reduction (%) Slight M ([2]; 25 µM, 96 h): 0% | Dead Worms (%) F ([2]; 50 µM, 24 h): 0% | Motor Activity Reduction (%) Significant F ([2]; 50 µM, 24 h): 0% | Motor Activity Reduction (%) Slight F ([2]; 50 µM, 24 h): 0% | Dead Worms (%) M ([2]; 50 µM, 24 h): 0% | Motor Activity Reduction (%) Significant M ([2]; 50 µM, 24 h): 0% | Motor Activity Reduction (%) Slight M ([2]; 50 µM, 24 h): 0% | Dead Worms (%) F ([2]; 50 µM, 48 h): 0% | Motor Activity Reduction (%) Significant F ([2]; 50 µM, 48 h): 0% | Motor Activity Reduction (%) Slight F ([2]; 50 µM, 48 h): 0% | Dead Worms (%) M ([2]; 50 µM, 48 h): 0% | Motor Activity Reduction (%) Significant M ([2]; 50 µM, 48 h): 0% | Motor Activity Reduction (%) Slight M ([2]; 50 µM, 48 h): 0% | Dead Worms (%) F ([2]; 50 µM, 72 h): 0% | Motor Activity Reduction (%) Significant F ([2]; 50 µM, 72 h): 0% | Motor Activity Reduction (%) Slight F ([2]; 50 µM, 72 h): 0% | Dead Worms (%) M ([2]; 50 µM, 72 h): 0% | Motor Activity Reduction (%) Significant M ([2]; 50 µM, 72 h): 0% | Motor Activity Reduction (%) Slight M ([2]; 50 µM, 72 h): 0% | Dead Worms (%) F ([2]; 50 µM, 96 h): 0% | Motor Activity Reduction (%) Significant F ([2]; 50 µM, 96 h): 0% | Motor Activity Reduction (%) Slight F ([2]; 50 µM, 96 h): 0% | Dead Worms (%) M ([2]; 50 µM, 96 h): 0% | Motor Activity Reduction (%) Significant M ([2]; 50 µM, 96 h): 0% | Motor Activity Reduction (%) Slight M ([2]; 50 µM, 96 h): 0% | activity against S. mansoni adult worms (in words) [2]: loss of biological activity against S. mansoni

CCCCOC(=O)/C=C/C=C/c1cc(OC)c(OC)c(OC)c1 [Compound 19A]
effect on NIH-3T3 cell viability (in words) [1]: did not exert significant effects on mammalian cell viability at the tested concentrations | Emax at 800 µg/mL [1]: < 50% | Dead Worms (%) F ([2]; 25 µM, 24 h): 0% | Motor Activity Reduction (%) Significant F ([2]; 25 µM, 24 h): 0% | Motor Activity Reduction (%) Slight F ([2]; 25 µM, 24 h): 0% | Dead Worms (%) M ([2]; 25 µM, 24 h): 0% | Motor Activity Reduction (%) Significant M ([2]; 25 µM, 24 h): 0% | Motor Activity Reduction (%) Slight M ([2]; 25 µM, 24 h): 0% | Dead Worms (%) F ([2]; 50 µM, 24 h): 0% | Motor Activity Reduction (%) Significant F ([2]; 50 µM, 24 h): 0% | Motor Activity Reduction (%) Slight F ([2]; 50 µM, 24 h): 0% | Dead Worms (%) M ([2]; 50 µM, 24 h): 0% | Motor Activity Reduction (%) Significant M ([2]; 50 µM, 24 h): 0% | Motor Activity Reduction (%) Slight M ([2]; 50 µM, 24 h): 0% | Dead Worms (%) F ([2]; 50 µM, 48 h): 0% | Motor Activity Reduction (%) Significant F ([2]; 50 µM, 48 h): 0% | Motor Activity Reduction (%) Slight F ([2]; 50 µM, 48 h): 0% | Dead Worms (%) M ([2]; 50 µM, 48 h): 0% | Motor Activity Reduction (%) Significant M ([2]; 50 µM, 48 h): 0% | Motor Activity Reduction (%) Slight M ([2]; 50 µM, 48 h): 0% | Dead Worms (%) F ([2]; 50 µM, 72 h): 0% | Motor Activity Reduction (%) Significant F ([2]; 50 µM, 72 h): 0% | Motor Activity Reduction (%) Slight F ([2]; 50 µM, 72 h): 0% | Dead Worms (%) M ([2]; 50 µM, 72 h): 0% | Motor Activity Reduction (%) Significant M ([2]; 50 µM, 72 h): 0% | Motor Activity Reduction (%) Slight M ([2]; 50 µM, 72 h): 0% | Dead Worms (%) F ([2]; 50 µM, 96 h): 0% | Motor Activity Reduction (%) Significant F ([2]; 50 µM, 96 h): 0% | Motor Activity Reduction (%) Slight F ([2]; 50 µM, 96 h): 0% | Dead Worms (%) M ([2]; 50 µM, 96 h): 0% | Motor Activity Reduction (%) Significant M ([2]; 50 µM, 96 h): 0% | Motor Activity Reduction (%) Slight M ([2]; 50 µM, 96 h): 0% | activity against S. mansoni adult worms (in words) [2]: loss of biological activity against S. mansoni | effect on J774A.1 cell viability (in words) [3]: did not reduce cell viability at the same concentrations

OO [Compound H2O2, hydrogen peroxide, reference compound]
annexin-V FITC staining (apoptosis marker) vs DMEM negative control (in words) (J774A.1 cells): significant (p < 0.05) increase in annexin-V FITC fluorescence intensity

— article PMC6032158, “Structure–Activity Relationship of Piplartine and Synthetic Analogues against Schistosoma mansoni and Cytotoxicity to Mammalian Cells” (International Journal of Molecular Sciences, 2018)
